# Values of other authors in patent US20220166043A1, “NEGATIVE ELECTRODE ELECTROLYTE SOLUTION FOR REDOX FLOW BATTERIES, AND REDOX FLOW BATTERY” (ARM Technologies Co., Ltd., priority 2019, published 2022).
# Values joined by “and” are separate entries in the source; they are usually repeats but may differ in a detail not shown here. Identical values can stand only once. Like-named read-outs stand apart in the source and are kept apart here.
# Conditions: octanol-water partition coefficient of the negative electrode solvent
Compound,Negative electrode solvent LogP (Log POW),Negative electrode solvent LogP (Log POW) (listed as PP13 TFSI)
1-methyl-1-propylpyrrolidinium bis(trifluoromethanesulfonyl)imide,4.82,4.8165
"COC1CCCC1 [MCP, methoxycyclopentane]",1.575 and 1.58,
"c1ccc(COCCOCc2ccccc2)cc1 [EGDBE, ethylene glycol dibenzyl ether]",3.42,
"Cc1cnc(C)c(C)n1 [2,3,5-trimethylpyrazine]",1.402 and 1.40,
